Data on ten compounds can be found in ChEMBL document CHEMBL4837256, “Discovery and Characterization of a Rapidly Fungicidal and Minimally Toxic Peptoid against Cryptococcus neoformans” (ACS Med Chem Lett, 2021).

The test system of one series is Lipid bilayer. Kind of series: Induction of membrane disruption in calcein loaded PC:PE:PS:Ergosterol (4:2:1:0.1) liposomes mimicking Cryptococcus neoformans H99S membrane assessed as increase in fluorescence intensity measured after 1 hr by liposome assay.
Series [1] has as its system Cryptococcus neoformans. Kind of series: Indifferent antifungal activity against Cryptococcus neoformans H99S assessed as fractional inhibitory concentration index incubated for 72 hrs in presence of 0.5 to 32 ug/ml fluconazole by checkerboard microdilution assay. The class given is functional. A general note: Broth dilution looks for growth in wells or tubes with falling amounts of substance.

Series [2] in a line: Stability of compound assessed as trypsin-mediated compound degradation at 2 mg/ml measured after 24 hrs by RP-HPLC method. The class given is ADME. Conditions: isolated protein.
Series [3] relates to Cryptococcus neoformans. Nature of the series: […] antifungal activity against Cryptococcus neoformans H99S assessed as fractional inhibitory concentration index incubated for 72 hrs in presence of 0.03 to 2 ug/ml Amphotericin B by checkerboard microdilution assay. In kind it is functional.
Series [4] is described as follows: Selectivity ratio of TD50 for mouse 3T3 cells to MIC for Cryptococcus neoformans H99S. In kind it is toxicity.
The subject of series [5] is Cryptococcus neoformans. Nature of the series: Antifungal activity against Cryptococcus neoformans H99S assessed as elimination of viable cells at 12.5 ug/ml measured after 1 hr by Plate reader assay. The class given is functional. Conditions: dose 12.5 µg/ml.
Series [6] can be described thus: Selectivity ratio of TD50 for human HepG2 cells to MIC for Cryptococcus neoformans H99S. In kind it is toxicity.
The next series has as its system Enterococcus faecalis. Nature of the series: Antibacterial activity against Enterococcus faecalis ATCC 29212 assessed as inhibition of bacterial growth measured after 24 hrs by Plate reader method. In kind it is functional.
Series [7] concerns Mycolicibacterium smegmatis. Kind of series: Antibacterial activity against Mycobacterium smegmatis assessed as inhibition of bacterial growth measured after 72 hrs by Plate reader method. In kind it is functional.
Series [8] has as its system Candida albicans. Kind of series: Antifungal activity against Candida albicans ATCC10231 assessed as inhibition of fungal growth measured after 24 hrs by Plate reader assay. The class given is functional.
Series [9] relates to Cryptococcus neoformans. Kind of series: Antifungal activity against Cryptococcus neoformans H99S assessed as half life for fungal killing at 12.5 ug/ml by Plate reader assay. The class given is functional, organism-based. The following applies: dose 12.5 µg/ml.
The subject of series [10] is Cryptococcus neoformans. Kind of series: Antifungal activity against Cryptococcus neoformans H99S assessed as dead cells at 12.5 ug/ml measured after 30 mins by time-to-kill assay. The following applies: dose 12.5 µg/ml, 0.5 h. The class given is functional.
The test system of a further series is Pseudomonas aeruginosa. Kind of series: Antibacterial activity against Pseudomonas aeruginosa ATCC 25619 assessed as inhibition of bacterial growth measured after 24 hrs by Plate reader method. The class given is functional.
The nature of series [11]: Selectivity ratio of MIC for Cryptococcus gattii R272 ATCC MYA-4094 to MIC for Cryptococcus neoformans H99S measured after 72 hrs by Plate reader assay. The class given is functional.
Series [12] has as its system Cryptococcus neoformans. Nature of the series: Antifungal activity against Cryptococcus neoformans H99S assessed as inhibition of fungal growth measured after 72 hrs by Plate reader assay. In kind it is functional.
In series [13] the test system is Candida albicans. Nature of the series: Antifungal activity against Candida albicans ATCC10231 assessed as inhibition of biofilm formation measured after 24 hrs by fluorescence based plate reader assay. The class given is functional.
Series [14] deals with Cryptococcus neoformans. Kind of series: Fungicidal activity against Cryptococcus neoformans H99S assessed as fungal killing at 12.5 ug/ml measured after drug wash-out. The class given is functional, organism-based. Conditions: dose 12.5 µg/ml.
A short description of series [15]: Selectivity ratio of TD50 for human HaCaT cells to MIC for Cryptococcus neoformans H99S. The class given is toxicity.
Series [16] in a line: Cytotoxicity against human HaCaT cells assessed as cell death measured after 72 hrs by MTT assay. The class given is cell-based. Conditions: read-out: TD50. For orientation: Tetrazolium assays rely on reduction of a dye to a coloured formazan, in cell work by metabolically active cells.
Series [17] can be described thus: Selectivity ratio of MIC for Cryptococcus gattii R265 ATCC MYA-4093 to MIC for Cryptococcus neoformans H99S measured after 72 hrs by Plate reader assay. The class given is functional.
Series [18] can be described thus: Antifungal activity against Cryptococcus gattii R272 ATCC MYA-4094 assessed as inhibition of fungal growth measured after 72 hrs by Plate reader assay. The class given is functional, Cryptococcus gattii VGI.
In another series the test system is Enterococcus faecium. Kind of series: Antibacterial activity against Enterococcus faecium ATCC 6569 assessed as inhibition of bacterial growth measured after 24 hrs by Plate reader method. In kind it is functional.
Series [19] is described as follows: Selectivity ratio of TD50 for human HPL1A cells to MIC for Cryptococcus neoformans H99S. In kind it is toxicity.
The nature of series [20]: Cytotoxicity against human HPL1A cells assessed as cell death measured after 72 hrs by MTT assay. The class given is cell-based. The following applies: read-out: TD50.
Series [21] concerns Cryptococcus neoformans. Kind of series: Indifferent antifungal activity against Cryptococcus neoformans H99S assessed as fractional inhibitory concentration index incubated for 72 hrs in presence of 0.25 to 16 ug/ml flucytosine by checkerboard microdilution assay. The class given is functional.
The next series deals with Acinetobacter baumannii. Kind of series: Antibacterial activity against Acinetobacter baumannii ATCC 19606 assessed as inhibition of bacterial growth measured after 24 hrs by Plate reader method. In kind it is functional. Conditions: ATCC 19606 = CIP 70.34 = JCM 6841.
Series [22] is described as follows: Selectivity ratio of HC10 for human RBC to MIC for Cryptococcus neoformans H99S. In kind it is toxicity. Conditions: red blood cells (RBC).
A short description of series [23]: Protein binding in human serum at 100 ug/ml measured after 24 hrs by RP-HPLC method. The class given is ADME, cell-free. Conditions: at 100 µg/mL.
Series [24] in a line: Cytotoxicity against mouse 3T3 cells assessed as cell death measured after 72 hrs by MTT assay. The class given is cell-based. The following applies: read-out: TD50.
A short description of series [25]: Cytotoxicity against human HepG2 cells assessed as cell death measured after 72 hrs by MTT assay. In kind it is cell-based. The following applies: read-out: TD50.
In series [26] the test system is Cryptococcus neoformans. Kind of series: Antifungal activity against Cryptococcus neoformans H99S assessed as inhibition of fungal growth preincubated with human serum for 1 hr followed by incubation with fungus and measured after 72 hrs by Plate reader method. In kind it is functional. Conditions: time 73 hrs.
Another series concerns Klebsiella pneumoniae. Kind of series: Antibacterial activity against Klebsiella pneumoniae ATCC 13883 assessed as inhibition of bacterial growth measured after 24 hrs by Plate reader method. The class given is functional.
For the next series, the system named is Staphylococcus aureus. Kind of series: Antibacterial activity against Staphylococcus aureus ATCC 29213 assessed as inhibition of bacterial growth measured after 24 hrs by Plate reader method. In kind it is functional.
Series [27] is described as follows: Antifungal activity against Cryptococcus gattii R265 ATCC MYA-4093 assessed as inhibition of fungal growth measured after 72 hrs by Plate reader assay. In kind it is functional, Cryptococcus gattii VGI.
In a further series the test system is Escherichia coli. Kind of series: Antibacterial activity against Escherichia coli ATCC 25922 assessed as inhibition of bacterial growth measured after 24 hrs by Plate reader method. The class given is functional.
Another series concerns Erythrocyte. Nature of the series: Hemolytic activity in human RBC measured after 1 hr by microplate reader method. In kind it is ADME, cell-based.
The subject of series [28] is Cryptococcus neoformans. Nature of the series: Antifungal activity against Cryptococcus neoformans assessed as assessed as half life for fungal killing. In kind it is functional, organism-based.

Values after ≈ are worked out from the molar mass of the structure shown. Active and inactive are the calls of the source. The rule behind the calls is not given here. Where a SMILES comes first, the peptide text is derived from it. [ ]: non-standard residue; d: D form. N(tridecyl)Gly = CCCCCCCCCCCCCNCC(=O)O; Gly(N-2-aminoethyl) = NCCNCC(=O)O; Gly(N-cHex) = O=C(O)CNC1CCCCC1; Nlys = NCCCCNCC(=O)O; Sar = CNCC(=O)O

`CCCCCCCCCCCCCNCC(=O)N(CC(=O)N(CCCCN)CC(=O)N(CCN)CC(=O)N(CC(N)=O)C1CCCCC1)C1CCCCC1` (H-[N(tridecyl)Gly][Gly(N-cHex)][Nlys][Gly(N-2-aminoethyl)][Gly(N-cHex)]-NH2): the result in the series with Lipid bilayer and with Cryptococcus neoformans [14] was Active. Also, the “fractional inhibitory concentration index (FICI)” value with Cryptococcus neoformans [1] was found to be 2; with Cryptococcus neoformans [3], 0.75; in the series with Cryptococcus neoformans [21], 2. The Stabilty entry in series [2] was “Stable”. Also, the selectivity ratio in [4] came to 38; in series [6], 120; in [15], 35; in series [19], 47; in series [22], 49. Moreover, the Activity with Cryptococcus neoformans [5] is recorded as 100%; in the series with Cryptococcus neoformans [10], more than 50%. Further, the MIC in the series on Enterococcus faecalis came out at 6.25 µg/mL (≈ 8.19 µM); in series [7] it was 3.13 µg/mL (≈ 4.1 µM); in the series on Candida albicans [8], 25 µg/mL (≈ 32.8 µM); in the series with Pseudomonas aeruginosa, 100 µg/mL (≈ 131 µM); in the series on Cryptococcus neoformans [12] it was 1.56 µg/mL (≈ 2.04 µM); in the series with Candida albicans [13], 100 µg/mL (≈ 131 µM). For the same compound, the MIC turned out to be 3.13 µg/mL (≈ 4.1 µM) in series [18]; 6.25 µg/mL (≈ 8.19 µM) in the series on Enterococcus faecium; 25 µg/mL (≈ 32.8 µM) in the series on Acinetobacter baumannii; 3.13 µg/mL (≈ 4.1 µM) with Cryptococcus neoformans [26]; 100 µg/mL (≈ 131 µM) in the series with Klebsiella pneumoniae; 6.25 µg/mL (≈ 8.19 µM) in the series on Staphylococcus aureus. Moreover, the results for the MIC (in series [27]; in the series with Escherichia coli) were 3.13 µg/mL (≈ 4.1 µM) and 12.5 µg/mL (≈ 16.4 µM), respectively. The T1/2 in the series on Cryptococcus neoformans [9] was found to be 6.5 min. The Selectivity ratio in [11] and in [17] was 2 throughout. The CC50 at 72 h worked out at 54 µg/mL (≈ 70.8 µM) in series [16], 74 µg/mL (≈ 97 µM) in [20], 59 µg/mL (≈ 77.3 µM) in series [24] and 189 µg/mL (≈ 248 µM) in series [25]. In [23], the PB entry is on record as “Not Active”. The HC10 with Erythrocyte was found to be 77 µg/mL.
Take `Nc1nc(=O)[nH]cc1F` [FLUCYTOSINE]: in the series with Cryptococcus neoformans [12], the MIC came out at 2 µg/mL (≈ 15.5 µM).
For the compound `CCCCCCCCCCCCCNCC(=O)N(CC(=O)N(CCCCN)CC(=O)N(C)CC(=O)N(CC(N)=O)C1CCCCC1)C1CCCCC1` (H-[N(tridecyl)Gly][Gly(N-cHex)][Nlys][Sar][Gly(N-cHex)]-NH2), the selectivity ratio in series [6] is 27. Moreover, in the series with Cryptococcus neoformans [12], the MIC was 3.13 µg/mL (≈ 4.26 µM). In addition, the CC50 at 72 h in series [25] was determined as 84 µg/mL (≈ 114 µM).
Turning to `CCCCCCCCCCCCCNCC(=O)N(CCCCN)CC(=O)N(CC(N)=O)Cc1ccco1`, the T1/2 in the series with Cryptococcus neoformans [28] stood at 30 min.
For the compound `C[C@@H]1[C@H](O)[C@@H](C)/C=C/C=C/C=C/C=C/C=C/C=C/C=C/[C@H](O[C@@H]2O[C@H](C)[C@@H](O)[C@H](N)[C@@H]2O)C[C@@H]2O[C@](O)(C[C@@H](O)C[C@@H](O)[C@H](O)CC[C@@H](O)C[C@@H](O)CC(=O)O[C@H]1C)C[C@H](O)[C@H]2C(=O)O` [AMPHOTERICIN B], the MIC in the series on Cryptococcus neoformans [12] is 0.25 µg/mL (≈ 0.271 µM). Besides, the T1/2 with Cryptococcus neoformans [28] came out at 240 min.
Regarding `CCCCCCCCCCCCCNCC(=O)N(CC(=O)N(CCCCN)CC(=O)N(CCN)CC(=O)N(C)CC(N)=O)C1CCCCC1` (H-[N(tridecyl)Gly][Gly(N-cHex)][Nlys][Gly(N-2-aminoethyl)][Sar]-NH2), the MIC with Cryptococcus neoformans [12] worked out at 6.25 µg/mL (≈ 8.99 µM). For the same compound, the CC50 at 72 h in series [25] is more than 200 µg/mL.
Regarding `CNCC(=O)N(CC(=O)N(CCCCN)CC(=O)N(CCN)CC(=O)N(CC(N)=O)C1CCCCC1)C1CCCCC1` (H-[Sar][Gly(N-cHex)][Nlys][Gly(N-2-aminoethyl)][Gly(N-cHex)]-NH2), the MIC with Cryptococcus neoformans [12] was more than 50 µg/mL. Further, the CC50 at 72 h in series [25] is more than 200 µg/mL.
For the compound `CCCCCCCCCCCCCNCC(=O)N(C)CC(=O)N(CCCCN)CC(=O)N(CCN)CC(=O)N(CC(N)=O)C1CCCCC1` (H-[N(tridecyl)Gly][Sar][Nlys][Gly(N-2-aminoethyl)][Gly(N-cHex)]-NH2), in the series with Cryptococcus neoformans [12], the MIC came out at 6.25 µg/mL (≈ 8.99 µM). For the same compound, in [25], the CC50 at 72 h was more than 200 µg/mL.
Take `CCCCCCCCCCCCCNCC(=O)N(CC(=O)N(C)CC(=O)N(CCN)CC(=O)N(CC(N)=O)C1CCCCC1)C1CCCCC1`: the selectivity ratio in [6] was 27. In the series on Cryptococcus neoformans [12], the MIC came to 3.13 µg/mL (≈ 4.43 µM). Also, the CC50 at 72 h in series [25] worked out at 83 µg/mL (≈ 118 µM).
Consider `OC(Cn1cncn1)(Cn1cncn1)c1ccc(F)cc1F` [FLUCONAZOLE], for which the MIC in the series on Cryptococcus neoformans [12] came out at 2 µg/mL (≈ 6.53 µM).
